Experimental data published in the supplement of paper PMC10331698.
± gives the standard deviation of the averaged measurements.

Key:
Assay in all cases: level (log10 ratio to DMSO vehicle control); higher = higher biomarker level / cell amount than vehicle control
[1] = compound: C=CC(F)(F)C(F)(F)C(F)(F)C(F)(F)C(F)(F)C(F)(F)C(F)(F)C(F)(F)C=C [1,8-Divinylperfluorooctane]; conditions: in DMSO
Description: (§1)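 BioMAP Diversity Plus panel of 12 human primary cell co-culture systems (3C, 4H, LPS, SAg, BT, BF4T, BE3C, CASM3C, HDF3CGF, KF3CT, MyoF, Mphg). Compounds were added 1 h before stimulation and left for 24 h (MyoF 48 h; BT 72 h for soluble read-outs or 6 d for IgG). Biomarkers were read by ELISA, cytotoxicity by SRB, PBMC viability and proliferation by Alamar Blue. Each well value was divided by the mean of 8 DMSO control wells on the same plate and log10 transformed; duplicate blinded samples were tested at 4 concentrations.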

Perfluoropentanoic acid = compound: O=C(O)C(F)(F)C(F)(F)C(F)(F)C(F)(F)F [Perfluoropentanoic acid]; conditions: in DMSO
Description: as §1

[2] = compound: O=C(O)C(F)(F)C(F)(F)C(F)(F)OC(F)(C(F)(F)F)C(F)(F)F [Perfluoro-4-isopropoxybutanoic acid]; conditions: in DMSO
Description: as §1

[3] = compound: O=C(O)C(F)(F)C(F)(F)C(F)F [4H-Perfluorobutanoic acid]; conditions: in DMSO
Description: as §1

Perfluoropropanoic acid = compound: O=C(O)C(F)(F)C(F)(F)F [Perfluoropropanoic acid]; conditions: in DMSO
Description: as §1

[4] = compound: O=C(O)C(F)(F)OC(F)(F)C(F)(F)OC(F)(F)C(=O)O [Perfluoro-3,6-dioxaoctane-1,8-dioic acid]; conditions: in DMSO
Description: as §1

[5] = compound: OCCCC(F)(F)C(F)(F)C(F)(F)C(F)(F)C(F)(F)C(F)(F)C(F)(F)F [7:3 Fluorotelomer alcohol]; conditions: 6700 nM; in DMSO
Description: as §1

Test System | level (log10) ([1]; 6700 nM) | level (log10) ([1]; 20000 nM) | level (log10) (Perfluoropentanoic acid; 6700 nM) | level (log10) (Perfluoropentanoic acid; 20000 nM) | level (log10) (Perfluoropentanoic acid; 60000 nM) | level (log10) ([2]; 6700 nM) | level (log10) ([2]; 20000 nM) | level (log10) ([2]; 60000 nM) | level (log10) ([3]; 6700 nM) | level (log10) ([3]; 20000 nM) | level (log10) ([3]; 60000 nM) | level (log10) (Perfluoropropanoic acid; 6700 nM) | level (log10) (Perfluoropropanoic acid; 20000 nM) | level (log10) (Perfluoropropanoic acid; 60000 nM) | level (log10) ([4]; 6700 nM) | level (log10) ([4]; 20000 nM) | level (log10) ([4]; 60000 nM) | level (log10) [5]
lMphg:CCL3/MIP-1alpha | -0.019 ± 0.0071 | 0.0065 ± 0.046 | 0.008 ± 0.059 | -0.006 ± 0.055 | 0.006 ± 0.055 | -0.035 ± 0.0085 | -0.0355 ± 0.029 | -0.005 ± 0.037 | -0.0075 ± 0.037 | 0.004 ± 0.016 | 0.0235 ± 0.011 | -0.0105 ± 0.023 | -0.0235 ± 0.0021 | 0.0115 ± 0.013 | -0.036 ± 0.025 | -0.045 ± 0.0042 | -0.027 ± 0.04 | -0.0155 ± 0.019
KF3CT:IL-1alpha | -0.0455 ± 0.013 | -0.0075 ± 0.057 | -0.004 ± 0.017 | 0.004 ± 0.0028 | -0.0115 ± 0.021 | 0.0225 ± 0.019 | 0.0165 ± 0.0035 | 0.014 ± 0.025 | 0.001 ± 0.05 | -0.0055 ± 0.005 | 0.0075 ± 0.06 | -0.013 ± 0.05 | -0.0035 ± 0.052 | -0.04 ± 0.038 | 0.0075 ± 0.00071 | -0.0065 ± 0.013 | 0.02 ± 0.013 | -0.0135 ± 0.011
3C:CD142/Tissue Factor | -0.068 ± 0.041 | -0.0205 ± 0.061 | 0.0225 ± 0.011 | 0.018 ± 0.027 | 0.0395 ± 0.056 | -0.015 ± 0.0085 | -0.0185 ± 0.0035 | -0.002 ± 0.0057 | -0.004 ± 0.0014 | -0.021 ± 0.0099 | 0.0105 ± 0.005 | -0.008 ± 0.018 | -0.015 ± 0.0085 | 0.0065 ± 0.0035 | -0.004 ± 0.042 | -0.0155 ± 0.013 | -0.0025 ± 0.059 | -0.007 ± 0.0057
lMphg:CD40 | -0.04 ± 0.0099 | -0.0195 ± 0.032 | 0.0225 ± 0.0092 | -0.0085 ± 0.0064 | 0.0175 ± 0.0078 | -0.012 ± 0.013 | -0.041 ± 0.034 | -0.027 ± 0.035 | 0.0065 ± 0.028 | -0.0035 ± 0.039 | 0.007 ± 0.024 | -0.0045 ± 0.021 | -0.0145 ± 0.023 | 0.004 ± 0.0028 | -0.03 ± 0.017 | -0.0085 ± 0.013 | -0.0105 ± 0.016 | -0.0135 ± 0.0078
HDF3CGF:CXCL11/I-TAC | 0.0135 ± 0.013 | 0.016 ± 0.037 | -0.0085 ± 0.012 | -0.0065 ± 0.015 | 0.005 ± 0.054 | 0.002 ± 0.021 | 0.008 ± 0.0042 | -0.0025 ± 0.00071 | -0.0155 ± 0.071 | 0.003 ± 0.0071 | 0.0125 ± 0.0035 | -0.0325 ± 0.032 | -0.018 ± 0.033 | -0.0215 ± 0.057 | 0.0105 ± 0.011 | 0.0235 ± 0.012 | 0.012 ± 0.0042 | -0.0445 ± 0.023
CASM3C:CD87/uPAR | -0.002 ± 0.014 | 0.0175 ± 0.0035 | -0.027 ± 0.052 | -0.031 ± 0.027 | -0.0175 ± 0.005 | -0.0225 ± 0.046 | -0.0265 ± 0.052 | 0.003 ± 0.014 | -0.016 ± 0.013 | 0 ± 0.02 | 0.0055 ± 0.022 | -0.0215 ± 0.019 | -0.008 ± 0.038 | 0.001 ± 0.013 | -0.023 ± 0.03 | -0.023 ± 0.018 | -0.0255 ± 0.00071 | -0.036 ± 0.057
HDF3CGF:PAI-I | 0 ± 0.013 | -0.0065 ± 0.012 | -0.0055 ± 0.026 | -0.015 ± 0.013 | 0.007 ± 0.0014 | -0.001 ± 0.033 | -0.0115 ± 0.025 | -0.0165 ± 0.013 | -0.021 ± 0.12 | 0.0115 ± 0.1 | 0.03 ± 0.069 | -0.07 ± 0.1 | -0.005 ± 0.12 | -0.002 ± 0.04 | 0.0055 ± 0.015 | 0.0135 ± 0.029 | 0.0295 ± 0.012 | 0.0175 ± 0.029
KF3CT:uPA | -0.0185 ± 0.0035 | -0.0185 ± 0.028 | 0.0015 ± 0.023 | 0 ± 0.0085 | 0.021 ± 0.0071 | -0.002 ± 0.0028 | 0.0105 ± 0.0035 | 0.016 ± 0.0014 | 0.0125 ± 0.028 | 0.0275 ± 0.0064 | 0.007 ± 0.035 | -0.0085 ± 0.022 | 0.032 ± 0.027 | 0.0045 ± 0.021 | 0.0005 ± 0.0078 | 0 ± 0.0071 | 0.012 ± 0.0014 | -0.0075 ± 0.0064
HDF3CGF:EGFR | 0.033 | 0.005 ± 0.041 | 0.008 ± 0.02 | -0.0265 ± 0.013 | -0.008 ± 0.027 | -0.001 ± 0.034 | -0.0035 ± 0.022 | -0.012 ± 0.024 | -0.0155 ± 0.054 | 0.0005 ± 0.019 | 0.0725 ± 0.12 | -0.0215 ± 0.035 | -0.0145 ± 0.022 | 0.0055 ± 0.019 | -0.001 ± 0.0057 | 0.0145 ± 0.0021 | 0.0245 ± 0.035 | -0.005 ± 0.12
3C:CD62E/E-Selectin | -0.0305 ± 0.025 | -0.014 ± 0.024 | -0.0085 ± 0.0035 | 0.0005 ± 0.0064 | 0.0175 ± 0.026 | -0.007 ± 0.023 | -0.015 ± 0.03 | 0.023 ± 0.0099 | -0.024 | -0.0235 ± 0.0092 | 0.017 ± 0.03 | -0.01 ± 0.013 | -0.005 ± 0.0085 | 0.0105 ± 0.013 | 0.0015 ± 0.029 | -0.0185 ± 0.0092 | -0.005 ± 0.02 | 0.002 ± 0.014
lMphg:SRB-Mphg | -0.0135 ± 0.016 | 0.0495 ± 0.0092 | -0.0125 ± 0.022 | 0.001 ± 0.0071 | 0.006 ± 0.017 | -0.0085 ± 0.012 | -0.0025 ± 0.005 | -0.019 ± 0.0028 | -0.009 ± 0.075 | -0.015 ± 0.054 | 0 ± 0.027 | -0.0375 ± 0.035 | -0.096 ± 0.057 | -0.0265 ± 0.1 | -0.0025 ± 0.0035 | -0.009 ± 0.016 | -0.003 ± 0.0099 | -0.0015 ± 0.0021
3C:CD54/ICAM-1 | -0.0005 ± 0.0064 | 0.0095 ± 0.0021 | -0.0145 ± 0.03 | -0.028 ± 0.021 | -0.0075 ± 0.022 | 0.0075 ± 0.016 | -0.0085 ± 0.022 | 0.0285 ± 0.0078 | -0.016 ± 0.0014 | -0.0105 ± 0.018 | 0.0025 ± 0.0092 | -0.0365 ± 0.012 | -0.0085 ± 0.0064 | 0.017 ± 0.02 | -0.0005 ± 0.0092 | -0.019 ± 0.0085 | -0.0135 ± 0.0035 | 0.013
HDF3CGF:CXCL8/IL-8 | -0.0095 ± 0.0021 | -0.002 ± 0.0085 | 0.003 ± 0.0057 | -0.006 ± 0.0028 | 0.002 ± 0.023 | 0.0015 ± 0.00071 | 0.0135 ± 0.0035 | 0.0035 ± 0.0021 | 0.001 ± 0.0014 | 0.0025 ± 0.0078 | 0.0095 ± 0.023 | -0.0055 ± 0.0021 | 0.007 ± 0.011 | 0.017 ± 0.0057 | -0.0005 ± 0.0021 | 0.0135 ± 0.005 | 0.017 ± 0.0042 | -0.005 ± 0.0042
MyoF:alpha-SM Actin | -0.016 ± 0.0042 | -0.0155 ± 0.028 | 0.0265 ± 0.07 | 0.0355 ± 0.052 | 0.0485 ± 0.044 | 0.0045 ± 0.023 | 0.008 ± 0.033 | 0.026 ± 0.052 | -0.0335 ± 0.047 | -0.0245 ± 0.049 | -0.026 ± 0.034 | -0.031 ± 0.035 | -0.013 ± 0.017 | 0.011 ± 0.0057 | 0.001 | -0.0125 ± 0.013 | 0.0245 ± 0.0021 | 0.0125 ± 0.0092
KF3CT:MMP-9 | -0.0395 ± 0.028 | -0.029 ± 0.018 | -0.0225 ± 0.025 | -0.0205 ± 0.018 | 0.012 ± 0.038 | 0.0055 ± 0.0035 | 0.022 ± 0.02 | 0.078 ± 0.014 | -0.024 ± 0.055 | -0.0395 ± 0.012 | -0.0775 ± 0.00071 | -0.0405 ± 0.012 | -0.053 ± 0.035 | -0.0105 ± 0.032 | -0.0105 ± 0.012 | 0 ± 0.0042 | 0.007 ± 0.0085 | -0.019 ± 0.018
CASM3C:LDLR | 0.008 | 0.0495 ± 0.019 | -0.0085 ± 0.0064 | -0.0045 ± 0.0078 | -0.0095 ± 0.025 | 0.012 ± 0.0014 | 0.017 ± 0.011 | 0 ± 0.0014 | -0.0785 ± 0.037 | -0.039 ± 0.0042 | -0.0235 ± 0.026 | -0.0845 ± 0.07 | -0.036 ± 0.054 | -0.022 ± 0.073 | 0.015 ± 0.034 | -0.0115 ± 0.0035 | 0.0155 ± 0.015 | 0.012 ± 0.0028
